Experimental data published in patent publication US20110039721A1, “METHOD FOR PREDICTION ABOUT CARCINOGENICITY OF SUBSTANCE IN RODENT” (Chemicals Evaluation and Research Institute, priority 2007, published 2011).

Test system: mRNA expressed from the genes (A) to (D) in rat liver
Test: Behavior of genes (mRNA expression level, oligo-DNA microarray) in rat liver after 28-day oral administration
Assay type: in vivo
Conditions: mRNA vs vehicle control group; for Behavior of gene caused by administration of chemical substance, Gene No. 4846 / Behavior of gene caused by administration of chemical substance, Gene No. 2026 / Behavior of gene caused by administration of chemical substance, Gene No. 4218 / Behavior of gene caused by administration of chemical substance, Gene No. 6182 / Behavior of gene caused by administration of chemical substance, Gene No. 5600: gene group (A); for Behavior of gene caused by administration of chemical substance, Gene No. 4846: Unigene No. Rn.144554; for Behavior of gene caused by administration of chemical substance, Gene No. 2026 / Behavior of gene caused by administration of chemical substance, Gene No. 4218: Unigene No. Rn.167075; for Behavior of gene caused by administration of chemical substance, Gene No. 6182: Unigene No. Rn.5834; for Behavior of gene caused by administration of chemical substance, Gene No. 5600: Unigene No. Rn.9836; for Behavior of gene caused by administration of chemical substance, Gene No. 1494 / Behavior of gene caused by administration of chemical substance, Gene No. 2045 / Behavior of gene caused by administration of chemical substance, Gene No. 2203: gene group (B); for Behavior of gene caused by administration of chemical substance, Gene No. 1494: Unigene No. Rn.1430; for Behavior of gene caused by administration of chemical substance, Gene No. 2045: Unigene No. Rn.19329; for Behavior of gene caused by administration of chemical substance, Gene No. 2203: Unigene No. Rn.21240; for Behavior of gene caused by administration of chemical substance, Gene No. 533 / Behavior of gene caused by administration of chemical substance, Gene No. 725 / Behavior of gene caused by administration of chemical substance, Gene No. 1163 / Behavior of gene caused by administration of chemical substance, Gene No. 4973 / Behavior of gene caused by administration of chemical substance, Gene No. 4095 / Behavior of gene caused by administration of chemical substance, Gene No. 1334 / Behavior of gene caused by administration of chemical substance, Gene No. 6620 / Behavior of gene caused by administration of chemical substance, Gene No. 6303 / Behavior of gene caused by administration of chemical substance, Gene No. 5878 / Behavior of gene caused by administration of chemical substance, Gene No. 1131 / Behavior of gene caused by administration of chemical substance, Gene No. 1562 / Behavior of gene caused by administration of chemical substance, Gene No. 1741 / Behavior of gene caused by administration of chemical substance, Gene No. 893 / Behavior of gene caused by administration of chemical substance, Gene No. 6026 / Behavior of gene caused by administration of chemical substance, Gene No. 154 / Behavior of gene caused by administration of chemical substance, Gene No. 1993 / Behavior of gene caused by administration of chemical substance, Gene No. 813 / Behavior of gene caused by administration of chemical substance, Gene No. 2494 / Behavior of gene caused by administration of chemical substance, Gene No. 2546 / Behavior of gene caused by administration of chemical substance, Gene No. 3776 / Behavior of gene caused by administration of chemical substance, Gene No. 3929 / Behavior of gene caused by administration of chemical substance, Gene No. 1119 / Behavior of gene caused by administration of chemical substance, Gene No. 6742 / Behavior of gene caused by administration of chemical substance, Gene No. 5634: gene group (C); for Behavior of gene caused by administration of chemical substance, Gene No. 533: Unigene No. Rn.106184; for Behavior of gene caused by administration of chemical substance, Gene No. 725: Unigene No. Rn.108075; for Behavior of gene caused by administration of chemical substance, Gene No. 1163: Unigene No. Rn.11766; for Behavior of gene caused by administration of chemical substance, Gene No. 4973: Unigene No. Rn.118529; for Behavior of gene caused by administration of chemical substance, Gene No. 4095: Unigene No. Rn.119024; for Behavior of gene caused by administration of chemical substance, Gene No. 1334 / Behavior of gene caused by administration of chemical substance, Gene No. 6620: Unigene No. Rn.120914; for Behavior of gene caused by administration of chemical substance, Gene No. 6303: Unigene No. Rn.123063; for Behavior of gene caused by administration of chemical substance, Gene No. 5878: Unigene No. Rn.143213; for Behavior of gene caused by administration of chemical substance, Gene No. 1131: Unigene No. Rn.144946; for Behavior of gene caused by administration of chemical substance, Gene No. 1562: Unigene No. Rn.14744; for Behavior of gene caused by administration of chemical substance, Gene No. 1741: Unigene No. Rn.1647; for Behavior of gene caused by administration of chemical substance, Gene No. 893: Unigene No. Rn.164817; for Behavior of gene caused by administration of chemical substance, Gene No. 6026: Unigene No. Rn.167685; for Behavior of gene caused by administration of chemical substance, Gene No. 154: Unigene No. Rn.185941; for Behavior of gene caused by administration of chemical substance, Gene No. 1993: Unigene No. Rn.18728; for Behavior of gene caused by administration of chemical substance, Gene No. 813: Unigene No. Rn.201760; for Behavior of gene caused by administration of chemical substance, Gene No. 2494: Unigene No. Rn.23969; for Behavior of gene caused by administration of chemical substance, Gene No. 2546: Unigene No. Rn.24561; for Behavior of gene caused by administration of chemical substance, Gene No. 3776: Unigene No. Rn.43232; for Behavior of gene caused by administration of chemical substance, Gene No. 3929: Unigene No. Rn.4620; for Behavior of gene caused by administration of chemical substance, Gene No. 1119: Unigene No. Rn.9757; for Behavior of gene caused by administration of chemical substance, Gene No. 6742: Unigene No. Rn.9779; for Behavior of gene caused by administration of chemical substance, Gene No. 5634: Unigene No. Rn.9862; for Behavior of gene caused by administration of chemical substance, Gene No. 5726: gene group (D), Unigene No. Rn.9939
Method: A test solution was prepared by dissolving each of the carcinogens and the non-carcinogens shown in Tables 2 to 6 in the corresponding solvent shown in Tables 2 to 6. Each of the thus prepared test solutions and the solvents used for the preparation was administered by oral gavage to rats in each group. As the rats, male rats (F344 SPF rats) at 5 weeks of age obtained from Charles River Laboratories Japan, Inc. were used. The animals were divided into groups, each containing four individuals. The volume of the solvent administered to the vehicle control group was set to the same volume as that of the test solution administered to the carcinogen administration group or the non-carcinogen administration group. The administration of the test solution or the solvent was performed once daily for 28 days. Apiece was excised from the liver of each of the rats after a lapse of 28 days from the initiation of the administration, and the total RNA was extracted and purified.
The expression level of mRNA was compared between each of the chemical substance administration groups and the corresponding vehicle control group, and genes that satisfy the requirements described in (A) to (D) were selected, respectively.
The case where the expression level of mRNA in the carcinogen administration group or the non-carcinogen administration group is 1.5 times or more or 1/1.5 or less of the expression level of the corresponding mRNA expressed in the control group was determined to be significant. In this connection, the determination as to whether or not the change is significant was performed by taking into consideration the direction of increase or decrease in the expression level. In the case where the direction of increase or decrease is different as compared with the case where another carcinogen was administered, the change was determined to be not significant.

Row | SMILES | Behavior of gene caused by administration of chemical substance, Gene No. 4846 | Behavior of gene caused by administration of chemical substance, Gene No. 2026 | Behavior of gene caused by administration of chemical substance, Gene No. 4218 | Behavior of gene caused by administration of chemical substance, Gene No. 6182 | Behavior of gene caused by administration of chemical substance, Gene No. 5600 | Behavior of gene caused by administration of chemical substance, Gene No. 1494 | Behavior of gene caused by administration of chemical substance, Gene No. 2045 | Behavior of gene caused by administration of chemical substance, Gene No. 2203 | Behavior of gene caused by administration of chemical substance, Gene No. 533 | Behavior of gene caused by administration of chemical substance, Gene No. 725 | Behavior of gene caused by administration of chemical substance, Gene No. 1163 | Behavior of gene caused by administration of chemical substance, Gene No. 4973 | Behavior of gene caused by administration of chemical substance, Gene No. 4095 | Behavior of gene caused by administration of chemical substance, Gene No. 1334 | Behavior of gene caused by administration of chemical substance, Gene No. 6620 | Behavior of gene caused by administration of chemical substance, Gene No. 6303 | Behavior of gene caused by administration of chemical substance, Gene No. 5878 | Behavior of gene caused by administration of chemical substance, Gene No. 1131 | Behavior of gene caused by administration of chemical substance, Gene No. 1562 | Behavior of gene caused by administration of chemical substance, Gene No. 1741 | other results
1 | O=[N+]([O-])c1cc[n+]([O-])c2ccccc12 [TS049, 4-Nitroquinoline-1-oxide] | − | − | − | − | − | − | − | − | − | − | − | − | − | − | − | − | − | − | − | − | Behavior of gene caused by administration of chemical substance, Gene No. 893: −; Behavior of gene caused by administration of chemical substance, Gene No. 6026: −; Behavior of gene caused by administration of chemical substance, Gene No. 154: −; Behavior of gene caused by administration of chemical substance, Gene No. 1993: −; Behavior of gene caused by administration of chemical substance, Gene No. 813: −; Behavior of gene caused by administration of chemical substance, Gene No. 2494: −; Behavior of gene caused by administration of chemical substance, Gene No. 2546: −; Behavior of gene caused by administration of chemical substance, Gene No. 3776: −; Behavior of gene caused by administration of chemical substance, Gene No. 3929: −; Behavior of gene caused by administration of chemical substance, Gene No. 1119: −; Behavior of gene caused by administration of chemical substance, Gene No. 6742: −; Behavior of gene caused by administration of chemical substance, Gene No. 5634: −; Behavior of gene caused by administration of chemical substance, Gene No. 5726: +
2 | c1ccc2c(c1)cc1ccc3cccc4ccc2c1c34 [TS063, Benzo[a]pyrene] | − | + | − | + | − | − | + | + | − | − | − | − | − | − | − | − | − | − | − | − | Behavior of gene caused by administration of chemical substance, Gene No. 893: −; Behavior of gene caused by administration of chemical substance, Gene No. 6026: −; Behavior of gene caused by administration of chemical substance, Gene No. 154: −; Behavior of gene caused by administration of chemical substance, Gene No. 1993: −; Behavior of gene caused by administration of chemical substance, Gene No. 813: −; Behavior of gene caused by administration of chemical substance, Gene No. 2494: −; Behavior of gene caused by administration of chemical substance, Gene No. 2546: −; Behavior of gene caused by administration of chemical substance, Gene No. 3776: −; Behavior of gene caused by administration of chemical substance, Gene No. 3929: −; Behavior of gene caused by administration of chemical substance, Gene No. 1119: −; Behavior of gene caused by administration of chemical substance, Gene No. 6742: −; Behavior of gene caused by administration of chemical substance, Gene No. 5634: +; Behavior of gene caused by administration of chemical substance, Gene No. 5726: −
